Laboratory results reported in PMC5639694 (Journal of medicinal chemistry, 2017).
“Also recorded” adds a separate entry of the source. Blank lines part the entries; values can stand above or below the molecule they belong to. Square brackets hold non-standard residues; d marks the D form. Peptide text beside a SMILES is read from it. Dap = NC[C@H](N)C(=O)O

Tests used:
[1] = molecular target: mMC4R (Mus musculus, UniProt P56450); test: AlphaScreen cAMP agonist assay, HEK293 cells stably expressing mMC4R; conditions: for mMC4R agonist activity/efficacy in words: concentrations up to 100 μM, full agonist = >90% maximal NDP-MSH stimulation; for selectivity for the mMC4R over the mMC3R: agonist potency ratio
[2] = molecular target: mMC1R (Mus musculus, UniProt Q01727); test: AlphaScreen cAMP agonist assay, HEK293 cells stably expressing mMC1R; conditions: for mMC1R agonist activity/efficacy in words: full agonist = >90% maximal NDP-MSH stimulation; for selectivity for the mMC1R over the mMC3R: agonist potency ratio
[3] = molecular target: mMC3R (Mus musculus, UniProt P33033); test: AlphaScreen cAMP agonist assay, HEK293 cells stably expressing mMC3R; conditions: for mMC3R partial agonist, percent maximal NDP stimulation: PA, relative to maximal NDP-MSH response; for mMC3R agonist activity/efficacy in words: concentrations up to 100 μM, full agonist = >90% maximal NDP-MSH stimulation
[4] = molecular target: mMC5R (Mus musculus, UniProt P41149); test: AlphaScreen cAMP agonist assay, HEK293 cells stably expressing mMC5R; conditions: for selectivity for the mMC5R over the mMC3R: agonist potency ratio; for mMC5R agonist activity/efficacy in words: concentrations up to 100 μM, full agonist = >90% maximal NDP-MSH stimulation
[5] = molecular target: mouse melanocortin 5 receptor (mouse) (UniProt P41149)
[6] = molecular target: mouse melanocortin 4 receptor (mouse) (UniProt P56450)
[7] = molecular target: mouse melanocortin 1 receptor (mouse) (UniProt Q01727)
Chain of mouse melanocortin 1 receptor (mouse) (Q01727 whole entry): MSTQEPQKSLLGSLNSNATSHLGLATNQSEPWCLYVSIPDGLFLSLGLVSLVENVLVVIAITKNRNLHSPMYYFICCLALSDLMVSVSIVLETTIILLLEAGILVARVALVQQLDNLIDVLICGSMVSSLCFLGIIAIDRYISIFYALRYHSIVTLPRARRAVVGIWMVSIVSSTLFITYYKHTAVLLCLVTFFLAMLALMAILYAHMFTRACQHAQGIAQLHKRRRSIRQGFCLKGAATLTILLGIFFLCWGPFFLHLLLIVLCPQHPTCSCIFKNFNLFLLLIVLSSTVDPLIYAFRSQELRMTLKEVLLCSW

Chain of mMC4R (P56450 whole entry): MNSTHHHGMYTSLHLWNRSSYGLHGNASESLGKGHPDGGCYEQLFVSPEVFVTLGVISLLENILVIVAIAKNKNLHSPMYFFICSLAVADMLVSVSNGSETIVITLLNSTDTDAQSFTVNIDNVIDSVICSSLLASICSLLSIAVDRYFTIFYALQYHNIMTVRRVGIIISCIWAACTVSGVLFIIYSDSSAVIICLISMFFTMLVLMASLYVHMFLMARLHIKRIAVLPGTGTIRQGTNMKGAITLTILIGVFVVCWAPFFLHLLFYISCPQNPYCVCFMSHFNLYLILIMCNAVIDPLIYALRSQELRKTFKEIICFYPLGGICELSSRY
Chain of mouse melanocortin 4 receptor (mouse) (P56450 whole entry): as above
Chain of mouse melanocortin 5 receptor (mouse) (P41149 whole entry): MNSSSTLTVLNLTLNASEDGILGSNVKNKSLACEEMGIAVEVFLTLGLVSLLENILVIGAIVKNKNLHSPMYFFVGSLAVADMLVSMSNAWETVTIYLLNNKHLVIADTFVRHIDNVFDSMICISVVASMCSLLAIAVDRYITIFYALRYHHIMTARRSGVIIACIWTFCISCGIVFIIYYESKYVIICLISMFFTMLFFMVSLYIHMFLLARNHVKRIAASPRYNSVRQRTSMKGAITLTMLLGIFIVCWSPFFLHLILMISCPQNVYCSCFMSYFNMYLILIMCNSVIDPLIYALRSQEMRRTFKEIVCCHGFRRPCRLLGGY
Chain of mMC5R (P41149 whole entry): as above
Chain of mMC3R (P33033 whole entry): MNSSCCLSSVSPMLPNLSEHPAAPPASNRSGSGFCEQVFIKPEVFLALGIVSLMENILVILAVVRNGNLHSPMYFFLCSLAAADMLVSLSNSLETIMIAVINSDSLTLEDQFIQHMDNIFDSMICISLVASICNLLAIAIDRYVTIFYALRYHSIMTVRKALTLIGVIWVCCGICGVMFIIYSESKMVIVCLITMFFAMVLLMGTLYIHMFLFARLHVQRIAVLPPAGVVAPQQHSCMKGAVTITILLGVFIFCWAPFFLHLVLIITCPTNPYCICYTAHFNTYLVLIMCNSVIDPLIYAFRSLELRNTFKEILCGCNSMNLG
Chain of mMC1R (Q01727 whole entry): as the sequence (Q01727 whole entry) above

Molecule: C[C@@H]1NC(=O)[C@H](CC(N)=O)NC(=O)[C@H](Cc2c[nH]c3ccccc23)NC(=O)[C@H](CCCNC(=N)N)NC(=O)[C@@H](Cc2ccccc2)NC(=O)[C@H](Cc2c[nH]cn2)NC(=O)[C@@H]2CCCN2C(=O)[C@H]2CCCN2C(=O)[C@H](Cc2ccccc2)NC1=O [Peptide 1, c[Pro-His-DPhe-Arg-Trp-Asn-Ala-Phe-DPro]] (cyclo(H[dF]RWNAF[dP]P))
- mMC4R agonist activity/efficacy in words [1]: full agonists

Molecule: C[C@@H]1NC(=O)[C@H](CC(N)=O)NC(=O)[C@H](Cc2c[nH]c3ccccc23)NC(=O)[C@H](CCCNC(=N)N)NC(=O)[C@@H](Cc2ccccc2)NC(=O)[C@H](Cc2c[nH]cn2)NC(=O)[C@@H]2CCCN2C(=O)[C@H]2CCCN2C1=O [Peptide 2, c[Pro-His-DPhe-Arg-Trp-Asn-Ala-DPro]] (cyclo(PH[dF]RWNA[dP]))
- decreased agonist potency at mMC1R relative to 1 [2]: 34 fold
- mMC3R partial agonist, percent maximal NDP stimulation [3]: 85%
- decreased agonist potency at mMC4R relative to 1 [1]: 21 fold
- decreased agonist potency at mMC5R relative to 1 [4]: 5 fold

Molecule: N=C(N)NCCC[C@@H]1NC(=O)[C@@H](Cc2ccccc2)NC(=O)[C@H](Cc2c[nH]cn2)NC(=O)[C@@H]2CCCN2C(=O)[C@H]2CCCN2C(=O)[C@H](CC(N)=O)NC(=O)[C@H](Cc2c[nH]c3ccccc23)NC1=O [Peptide 3, c[Pro-His-DPhe-Arg-Trp-Asn-DPro]] (cyclo(PH[dF]RWN[dP]))
- decreased agonist potency at mMC1R relative to 1 [2]: 140 fold
- mMC3R partial agonist, percent maximal NDP stimulation [3]: 65%
- decreased agonist potency at mMC4R relative to 1 [1]: 120 fold
- decreased agonist potency at mMC5R relative to 1 [4]: 37 fold

Molecule: C[C@@H]1NC(=O)[C@H](CN)NC(=O)[C@H](Cc2c[nH]c3ccccc23)NC(=O)[C@H](CCCNC(=N)N)NC(=O)[C@@H](Cc2ccccc2)NC(=O)[C@H](Cc2c[nH]cn2)NC(=O)[C@@H]2CCCN2C(=O)[C@H]2CCCN2C(=O)[C@H](Cc2ccccc2)NC1=O [Peptide 4, c[Pro-His-DPhe-Arg-Trp-Dap-Ala-Phe-DPro]] (cyclo(PH[dF]RW[Dap]AF[dP]))
- mMC1R agonist activity/efficacy in words [2]: full agonist
- decreased agonist potency at mMC1R relative to 1 [2]: 70 fold
- mMC3R agonist activity/efficacy in words [3]: full agonist
- mMC4R partial agonist, percent maximal NDP stimulation ([1]; PA, relative to maximal NDP-MSH response): 70%
- mMC4R agonist activity/efficacy in words [1]: partial agonist

Molecule: C[C@@H]1NC(=O)[C@H](CN)NC(=O)[C@H](Cc2c[nH]c3ccccc23)NC(=O)[C@H](CCCNC(=N)N)NC(=O)[C@@H](Cc2ccccc2)NC(=O)[C@H](Cc2c[nH]cn2)NC(=O)[C@@H]2CCCN2C(=O)[C@H]2CCCN2C1=O [Peptide 5, c[Pro-His-DPhe-Arg-Trp-Dap-Ala-DPro]] (cyclo(H[dF]RW[Dap]A[dP]P))
- mMC4R agonist activity/efficacy in words [1]: fully stimulate; also recorded: full agonists
- selectivity for the mMC5R over the mMC3R [4]: > 100 fold

Molecule: N=C(N)NCCC[C@@H]1NC(=O)[C@@H](Cc2ccccc2)NC(=O)[C@H](Cc2c[nH]cn2)NC(=O)[C@@H]2CCCN2C(=O)[C@H]2CCCN2C(=O)[C@H](CN)NC(=O)[C@H](Cc2c[nH]c3ccccc23)NC1=O [Peptide 6, c[Pro-His-DPhe-Arg-Trp-Dap-DPro]] (cyclo(PH[dF]RW[Dap][dP]))
- selectivity for the mMC1R over the mMC3R [2]: > 100 fold
- decreased agonist potency at mMC1R relative to 5 ([2]; relative to 5): 420 fold
- mMC3R agonist activity/efficacy in words [3]: partially stimulated
- decreased agonist potency at mMC4R relative to 5 ([1]; relative to 5): 590 fold
- selectivity for the mMC5R over the mMC3R [4]: > 100 fold
- decreased agonist potency at mMC5R relative to 5 ([4]; relative to 5): 1,100 fold

Molecule: N=C(N)NCCC[C@@H]1NC(=O)[C@@H](Cc2ccccc2)NC(=O)[C@H](Cc2c[nH]cn2)NC(=O)[C@@H]2CCCN2C(=O)[C@H]2CCCN2C(=O)[C@H](Cc2c[nH]c3ccccc23)NC1=O [Peptide 7, c[Pro-His-DPhe-Arg-Trp-DPro]] (cyclo(PH[dF]RW[dP]))
- mMC3R agonist activity/efficacy in words [3]: partially stimulated

Molecule: C[C@@H]1NC(=O)[C@H](CC(N)=O)NC(=O)[C@H](Cc2c[nH]c3ccccc23)NC(=O)[C@H](CCCNC(=N)N)NC(=O)[C@@H](Cc2ccccc2)NC(=O)[C@@H]2CCCN2C(=O)[C@H]2CCCN2C(=O)[C@H](Cc2ccccc2)NC1=O [Peptide 8, c[Pro-DPhe-Arg-Trp-Asn-Ala-Phe-DPro]] (cyclo(P[dF]RWNAF[dP]))
- selectivity for the mMC1R over the mMC3R [2]: > 100 fold
- mMC1R agonist activity/efficacy in words [2]: full mMC1R agonists
- decreased agonist potency at mMC1R relative to 1 [2]: 1140 fold
- mMC3R agonist activity/efficacy in words [3]: partially stimulated
- selectivity for the mMC4R over the mMC3R [1]: > 300 fold
- decreased agonist potency at mMC4R relative to 1 [1]: 90 fold
- selectivity for the mMC5R over the mMC3R [4]: > 1000 fold
- decreased agonist potency at mMC5R relative to 1 [4]: 90 fold

Molecule: C[C@@H]1NC(=O)[C@H](CC(N)=O)NC(=O)[C@H](Cc2c[nH]c3ccccc23)NC(=O)[C@H](CCCNC(=N)N)NC(=O)[C@@H](Cc2ccccc2)NC(=O)[C@@H]2CCCN2C(=O)[C@H]2CCCN2C1=O [Peptide 9, c[Pro-DPhe-Arg-Trp-Asn-Ala-DPro]] (cyclo(P[dF]RWNA[dP]))
- selectivity for the mMC1R over the mMC3R [2]: > 100 fold
- mMC1R agonist activity/efficacy in words [2]: full mMC1R agonists
- mMC3R agonist activity/efficacy in words [3]: partially stimulated
- selectivity for the mMC5R over the mMC3R [4]: > 1000 fold

Molecule: N=C(N)NCCC[C@@H]1NC(=O)[C@@H](Cc2ccccc2)NC(=O)[C@@H]2CCCN2C(=O)[C@H]2CCCN2C(=O)[C@H](CC(N)=O)NC(=O)[C@H](Cc2c[nH]c3ccccc23)NC1=O [Peptide 10, c[Pro-DPhe-Arg-Trp-Asn-DPro]] (cyclo(P[dF]RWN[dP]))
- mMC3R agonist activity/efficacy in words [3]: no agonist activity; also recorded: did not possess agonist activity
- mMC5R agonist activity/efficacy in words [4]: partially stimulated

Molecule: C[C@@H]1NC(=O)[C@H](CN)NC(=O)[C@H](Cc2c[nH]c3ccccc23)NC(=O)[C@H](CCCNC(=N)N)NC(=O)[C@@H](Cc2ccccc2)NC(=O)[C@@H]2CCCN2C(=O)[C@H]2CCCN2C(=O)[C@H](Cc2ccccc2)NC1=O [Peptide 11, c[Pro-DPhe-Arg-Trp-Dap-Ala-Phe-DPro]] (cyclo(P[dF]RW[Dap]AF[dP]))
- mMC1R agonist activity/efficacy in words [2]: partial agonist
- mMC3R agonist activity/efficacy in words [3]: partial agonist
- mMC4R agonist activity/efficacy in words [1]: full agonist efficacy
- mMC5R agonist activity/efficacy in words [4]: full agonist efficacy

More lines, main results first:

- mMC3R agonist activity/efficacy in words [3]: partially stimulated
- selectivity for the mMC4R over the mMC3R [1]: > 300 fold
- selectivity for the mMC5R over the mMC3R [4]: > 1000 fold
Molecule: C[C@@H]1NC(=O)[C@H](CN)NC(=O)[C@H](Cc2c[nH]c3ccccc23)NC(=O)[C@H](CCCNC(=N)N)NC(=O)[C@@H](Cc2ccccc2)NC(=O)[C@@H]2CCCN2C(=O)[C@H]2CCCN2C1=O [Peptide 12, c[Pro-DPhe-Arg-Trp-Dap-Ala-DPro]] (cyclo(P[dF]RW[Dap]A[dP]))
- mMC1R agonist activity/efficacy in words [2]: full agonist efficacy; also recorded: full mMC1R agonists

- mMC4R agonist activity/efficacy in words [1]: partially stimulated
Molecule: N=C(N)NCCC[C@@H]1NC(=O)[C@@H](Cc2ccccc2)NC(=O)[C@@H]2CCCN2C(=O)[C@H]2CCCN2C(=O)[C@H](CN)NC(=O)[C@H](Cc2c[nH]c3ccccc23)NC1=O [Peptide 13, c[Pro-DPhe-Arg-Trp-Dap-DPro]] (cyclo(P[dF]RW[Dap][dP]))
- mMC3R agonist activity/efficacy in words [3]: no observable activity; also recorded: did not possess agonist activity; also recorded: no agonist activity
- mMC5R agonist activity/efficacy in words [4]: no observable activity; also recorded: unable to stimulate; also recorded: no agonist activity

- agonist EC50 (cAMP AlphaScreen, HEK293 cells stably expressing the receptor) [5]: 46 nM
Molecule: cyclo(P[dF]RW[Dap]AF[dP])

- agonist EC50 (cAMP AlphaScreen, HEK293 cells stably expressing the receptor) [6]: 150 nM
- agonist EC50 (cAMP AlphaScreen, HEK293 cells stably expressing the receptor) [5]: 48 nM
Molecule: cyclo(P[dF]RW[Dap]A[dP])

- agonist EC50 (cAMP AlphaScreen, HEK293 cells stably expressing the receptor) [6]: 130 nM
B1: c[Pro-DPhe-Arg-Trp-Asn-Ala-Phe-DPro] (peptide)
peptide: cyclo(P[dF]RWNAF[dP])
SMILES: C[C@@H]1NC(=O)[C@H](CC(N)=O)NC(=O)[C@H](Cc2c[nH]c3ccccc23)NC(=O)[C@H](CCCNC(=N)N)NC(=O)[C@@H](Cc2ccccc2)NC(=O)[C@@H]2CCCN2C(=O)[C@H]2CCCN2C(=O)[C@H](Cc2ccccc2)NC1=O

- agonist EC50 (cAMP AlphaScreen, HEK293 cells stably expressing the receptor) [6]: 420 nM
B2: c[Pro-DPhe-Arg-Trp-Asn-Ala-DPro] (peptide)
peptide: cyclo(P[dF]RWNA[dP])
SMILES: C[C@@H]1NC(=O)[C@H](CC(N)=O)NC(=O)[C@H](Cc2c[nH]c3ccccc23)NC(=O)[C@H](CCCNC(=N)N)NC(=O)[C@@H](Cc2ccccc2)NC(=O)[C@@H]2CCCN2C(=O)[C@H]2CCCN2C1=O

- agonist EC50 (cAMP AlphaScreen, HEK293 cells stably expressing the receptor) [7]: 1800 nM
B3: c[Pro-DPhe-Arg-Trp-DPro] (peptide)
peptide: cyclo(P[dF]RW[dP])
SMILES: N=C(N)NCCC[C@@H]1NC(=O)[C@@H](Cc2ccccc2)NC(=O)[C@@H]2CCCN2C(=O)[C@H]2CCCN2C(=O)[C@H](Cc2c[nH]c3ccccc23)NC1=O

- agonist EC50 (cAMP AlphaScreen, HEK293 cells stably expressing the receptor) [6]: 170 nM
- agonist EC50 (cAMP AlphaScreen, HEK293 cells stably expressing the receptor) [5]: 16.8 nM
Molecule: cyclo(PH[dF]RWN[dP]) [c[Pro-His-DPhe-Arg-Trp-Asn-DPro]]
